Measured values: paper PMC5078989, “Targeted inhibition of the COP9 signalosome for treatment of cancer” (Nature Communications, 2016)

Tested on: panel of cancer cell lines
Assay: Cell viability (CellTiter-Glo) dose-response across cancer cell line panel;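 further: after 72 h compound incubation with CellTiter-Glo ATP readout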
Format: cell-based, human
Details: Homo sapiens
From the text: Next, we explored the effect of CSN5 inhibition on the viability of cancer cells. To obtain a comprehensive picture, we generated dose–response curves with a CSN5 inhibitor across more than 500 cancer cell lines in a previously described standardized setting[47] (Supplementary Data 1).
A standardized CellTiter-Glo Assay (Promega #G7570) based on the quantification of ATP was applied according to the manufacturer's protocol to measure the amount of viable cells in culture. In brief, cells were seeded into 384-well plates at optimal density for each cell line. After 4 h, compounds were added at different concentrations in growth medium and incubated for another 72 h in a humidifying chamber at 37 °C and 5% CO2. […] EC50 values were calculated from the plot of percentage of inhibition versus inhibitor concentration using the nonlinear regression analysis software Origin 7.5SR6 (OriginLab Corp.).

SMILES: COCc1ccccc1NCc1ccc([C@@H]2[C@H](O)CCCc3cncn32)c(-c2ccccc2Cl)c1 [CSN5i-2e, (5R,6R)-5-(2′-chloro-5-(((2-(methoxymethyl)phenyl)amino)methyl)-[1,1′-biphenyl]-2-yl)-6,7,8,9-tetrahydro-5H-imidazo[1,5-a]azepin-6-ol]
- EC50 (MSTO-211H, MSTO-211H cells): 10.8 µM
- EC50 (MV4-11, MV-4-11 cells): 6.71 µM
- EC50 (Malme-3M, Malme-3M cells): 13.6 µM
- EC50 (Mono-Mac-1, MONO-MAC-1 cells): 3.69 µM
- EC50 (NALM-6, NALM-6 cells): 6.94 µM
- EC50 (NB1, NB-1 cells): 11.7 µM
- EC50 (NB-4, NB-4 cells): 8.86 µM
- EC50 (NCI-H23, NCI-H23 cells): 23.9 µM
- EC50 (NCI-H28, NCI-H28 cells): 15 µM
- EC50 (NCI-H146, NCI-H146 cells): 11.6 µM
- EC50 (NCI-H211, NCI-H211 cells): 20.6 µM
- EC50 (NCI-H322, NCI-H322 cells): 12.9 µM
- EC50 (NCI-H441, NCI-H441 cells): 24.7 µM
- EC50 (NCI-H460, NCI-H460 cells): 10.1 µM
- EC50 (NCI-H661, NCI-H661 cells): 20.1 µM
- EC50 (NCI-H747, NCI-H747 cells): 10.7 µM
- EC50 (NCI-H810, NCI-H810 cells): > 30 µM
- EC50 (NCI-H838, NCI-H838 cells): > 30 µM
- EC50 (NCI-H841, NCI-H841 cells): 11 µM
- EC50 (NCI-H1048, NCI-H1048 cells): 15.8 µM
- EC50 (NCI-H1155, NCI-H1155 cells): 8.05 µM
- EC50 (NCI-H1299, NCI-H1299 cells): 8.56 µM
- EC50 (NCI-H1339, NCI-H1339 cells): 11.2 µM
- EC50 (NCI-H1341 cells): 10.2 µM
- EC50 (NCI-H1355, NCI-H1355 cells): 12 µM
- EC50 (NCI-H1373, NCI-H1373 cells): 13 µM
- EC50 (NCI-H1437, NCI-H1437 cells): 11.7 µM
- EC50 (NCI-H1568, NCI-H1568 cells): 11.2 µM
- EC50 (NCI-H1581, NCI-H1581 cells): 7.75 µM
- EC50 (NCI-H1650, NCI-H1650 cells): 12.6 µM
- EC50 (NCI-H1666, NCI-H1666 cells): 12.9 µM
- EC50 (NCI-H1693, NCI-H1693 cells): 14.7 µM
- EC50 (NCI-H1703, NCI-H1703 cells): 6.5 µM
- EC50 (NCI-H1755, NCI-H1755 cells): 12.8 µM
- EC50 (NCI-H1975, NCI-H1975 cells): 11.3 µM
- EC50 (NCI-H2023, NCI-H2023 cells): 12.4 µM
- EC50 (NCI-H2030, NCI-H2030 cells): 29.9 µM
- EC50 (NCI-H2073, NCI-H2073 cells): 20.3 µM
- EC50 (NCI-H2087, NCI-H2087 cells): 13 µM
- EC50 (NCI-H2110, NCI-H2110 cells): 11.8 µM
- EC50 (NCI-H2122, NCI-H2122 cells): 10.1 µM
- EC50 (NCI-H2170, NCI-H2170 cells): 10.4 µM
- EC50 (NCI-H2171, NCI-H2171 cells): 17.6 µM
- EC50 (NCI-H2228, NCI-H2228 cells): > 30 µM
- EC50 (NCI-H2286, NCI-H2286 cells): 10.5 µM
- EC50 (NCI-H2444, NCI-H2444 cells): 11.6 µM
- EC50 (NCI-H2452, NCI-H2452 cells): > 30 µM
- EC50 (NCI-H3255, NCI-H3255 cells): 13.2 µM
- EC50 (NO36 cells): 13.1 µM
- EC50 (NOMO-1, NOMO-1 cells): 7.28 µM
- EC50 (NUGC-3, NUGC-3 cells): 9.54 µM
- EC50 (OCI-AML-3, OCI-AML3 cells): 7.14 µM
- EC50 (OCI-AML-5, OCI-AML5 cells): 9.5 µM
- EC50 (OCI-Ly3, OCI-LY3 cells): 5.42 µM
- EC50 (OCI-M1, OCI-M1 cells): 7.25 µM
- EC50 (ONCO-DG-1, ONCO-DG-1 cells): 7.45 µM
- EC50 (OUMS-23, OUMS-23 cells): 12.2 µM
- EC50 (OV56, OV56 cells): 12.7 µM
- EC50 (OVCAR-4, OVCAR-4 cells): 9.93 µM
- EC50 (OVISE cells): 12.1 µM
- EC50 (P3HR-1, P3HR-1 cells): 7.82 µM
- EC50 (P12-Ichikawa, P12-ICHIKAWA cells): 7.02 µM
- EC50 (P31-FUJ, P31/FUJ cells): 13.4 µM
- EC50 (PANC-1, PANC-1 cells): 12.2 µM
- EC50 (PANC-03-27, Panc 03.27 cells): 21.9 µM
- EC50 (PC-3, PC-3 cells): 10.7 µM
- EC50 (PC-14, PC-14 cells): 12.6 µM
- EC50 (PE/CA-PJ49 cells): 12.7 µM
- EC50 (PF-382, PF-382 cells): 4.99 µM
- EC50 (PK-1, PK-1 cells): 15.9 µM
- EC50 (PK-45H cells): 9.52 µM
- EC50 (PK-59, PK-59 cells): 11.5 µM
- EC50 (PL-21, PL-21 cells): 6.39 µM
- EC50 (PLC-PRF-5, PLC/PRF/5 cells): 19.8 µM
- EC50 (PSN1, PSN1 cells): 11 µM
- EC50 (PaTu 8988s, PA-TU-8988S cells): 26.6 µM
- EC50 (PaTu 8988t, PA-TU-8988T cells): 10.6 µM
- EC50 (Panc 02.03, Panc 02.03 cells): > 30 µM
- EC50 (Panc 04.03, Panc 04.03 cells): 13.1 µM
- EC50 (QGP-1, QGP-1 cells): 11.8 µM
- EC50 (RCM-1, RCM-1 cells): 13.6 µM
- EC50 (RD, RD cells): 9.86 µM
- EC50 (RERF-LC-AI cells): 11.7 µM
- EC50 (RERF-LC-MS cells): 24.1 µM
- EC50 (RKN cells): 28.9 µM
- EC50 (RKO, RKO cells): 17.9 µM
- EC50 (RPMI 8402, RPMI-8402 cells): 7.36 µM
- EC50 (RPMI-7951, RPMI-7951 cells): 11.4 µM
- EC50 (RT-112, RT-112 cells): 11.2 µM
- EC50 (Rh41, RH-41 cells): 4.52 µM
- EC50 (SCC-25, SCC-25 cells): 11.6 µM
- EC50 (SCaBER, SCaBER cells): > 30 µM
- EC50 (SEM cells): 9.47 µM
- EC50 (SF-268, SF-268 cells): 12.7 µM
- EC50 (SH-4, SH-4 cells): 11.1 µM
- EC50 (SH-10-TC, SH-10-TC cells): 10.6 µM
- EC50 (SH-SY5Y, SH-SY5Y cells): 8.13 µM
- EC50 (SJRH30, SJRH30 cells): 15.5 µM
- EC50 (SK-CO-1, SK-CO-1 cells): 10.7 µM
- EC50 (SK-ES1, SK-ES-1 cells): 13.2 µM
- EC50 (SK-HEP1, SK-HEP-1 cells): > 30 µM
- EC50 (SK-LU-1, SK-LU-1 cells): 8.59 µM
- EC50 (SK-MEL3, SK-MEL-3 cells): 10.3 µM
- EC50 (SK-MEL-2, SK-MEL-2 cells): 14.9 µM
- EC50 (SK-MEL-5, SK-MEL-5 cells): 10.6 µM
- EC50 (SK-MEL-28, SK-MEL-28 cells): 13.2 µM
- EC50 (SK-MEL-30, SK-MEL-30 cells): 12.1 µM
- EC50 (SK-MEL-31 cells): 23.9 µM
- EC50 (SK-MES-1, SK-MES-1 cells): 28 µM
- EC50 (SK-N-SH, SK-N-SH cells): 26.6 µM
- EC50 (SKM-1, SKM-1 cells): 13.6 µM
- EC50 (SKNBE2, SK-N-BE(2) cells): 11.4 µM
- EC50 (SNB-19, SNB-19 cells): 25 µM
- EC50 (SNG-M cells): 20.9 µM
- EC50 (SNU668, SNU-668 cells): 11.5 µM
- EC50 (SNU878, SNU-878 cells): 7.43 µM
- EC50 (SNU-8 cells): > 30 µM
- EC50 (SNU-16, SNU-16 cells): 8.93 µM
- EC50 (SNU-61 cells): > 30 µM
- EC50 (SNU-175 cells): 17.1 µM
- EC50 (SNU-213 cells): 13.4 µM
- EC50 (SNU-324 cells): 12.8 µM
- EC50 (SNU-349 cells): > 30 µM
- EC50 (SNU-387, SNU-387 cells): 9.94 µM
- EC50 (SNU-398, SNU-398 cells): 6.84 µM
- EC50 (SNU-410 cells): 22.2 µM
- EC50 (SNU-423, SNU-423 cells): 12.7 µM
- EC50 (SNU-449, SNU-449 cells): 25.6 µM
- EC50 (SNU-475, SNU-475 cells): > 30 µM
